The text below walks through data of PubChem BioAssay (NCI).

Some test systems named below: BT-549 breast; CAKI-1 renal; EKVX NSCLC; HL-60(TB) leukemia; K-562 leukemia; M14 melanoma; NCI-H226 lung; SK-MEL-28 melanoma; UACC-257 melanoma; UO-31 renal.
Test in all cases: NCI-60 cell line screen, 48 h

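Results reflect a 48-hour exposure of cells in 96-well plates to compound at five concentrations. TGI: total growth inhibition.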 Where only a bound is given, the exact number is not on record here.

Take `COc1ccc2c(c1)c(=O)c1c(NCCCN(C)C)ccc3ncn2c31`: the TGI with BT-549 breast is 32 µM; with CAKI-1 renal, 22.6 µM; in the assay with EKVX NSCLC, 27 µM; with HL-60(TB) leukemia it was 25.1 µM; in the assay on K-562 leukemia, over 56.1 µM; in the assay with M14 melanoma it was 12.9 µM. Also, the TGI was determined as 22.2 µM with NCI-H226 lung, 26.4 µM in the assay with SK-MEL-28 melanoma, 27 µM with UACC-257 melanoma and 16.1 µM with UO-31 renal.
As to `COC(=O)C1(Cc2ccc(C)cc2)Cc2c(C)cccc2C1=O` (stereo unspecified), the TGI in the assay on BT-549 breast is 69.7 µM; in the assay on CAKI-1 renal it was over 100 µM; in the assay with EKVX NSCLC, over 100 µM; in the assay on HL-60(TB) leukemia, 25 µM; with K-562 leukemia it was over 100 µM; with M14 melanoma it was over 100 µM. Moreover, the TGI was 38.4 µM in the assay with NCI-H226 lung, over 100 µM in the assay with SK-MEL-28 melanoma, 91.3 µM in the assay with UACC-257 melanoma and over 100 µM in the assay on UO-31 renal.
In the case of `CC1OC(OC2C[C@](O)(C(=O)CBr)Cc3c(O)c4c(c(O)c32)C(=O)c2ccccc2C4=O)C(F)C(O)C1O` (stereo partly specified), the TGI with BT-549 breast is over 100 µM; with CAKI-1 renal it was 49 µM; in the assay with EKVX NSCLC it was over 100 µM; in the assay with HL-60(TB) leukemia it was 3.22 µM; with K-562 leukemia, over 38.8 µM; in the assay with M14 melanoma, 26.1 µM. Also, the TGI was 36.4 µM in the assay on NCI-H226 lung, over 66.1 µM in the assay on SK-MEL-28 melanoma, 39.6 µM in the assay with UACC-257 melanoma and 8.9 µM with UO-31 renal.
Take `O=C(c1cccc2cc(O)ccc12)c1cn(CCN2CCOCC2)c2ccccc12`: the TGI in the assay with BT-549 breast was 56.9 µM; with CAKI-1 renal, over 100 µM; with EKVX NSCLC, 64.8 µM; in the assay with HL-60(TB) leukemia, 55.5 µM; in the assay with K-562 leukemia, over 100 µM; with M14 melanoma it was 36.9 µM. The TGI in the assay with NCI-H226 lung was 87.3 µM; with SK-MEL-28 melanoma, over 100 µM; with UACC-257 melanoma it was 56 µM; in the assay with UO-31 renal, 71.4 µM.
For the compound `O=c1oc2ccccc2n1CCCn1c(=O)oc2ccccc21`, the TGI in the assay with BT-549 breast, in the assay on CAKI-1 renal, in the assay on EKVX NSCLC, with HL-60(TB) leukemia, in the assay with K-562 leukemia and in the assay on M14 melanoma was over 100 µM throughout. The TGI in the assay on NCI-H226 lung, in the assay with SK-MEL-28 melanoma and in the assay with UACC-257 melanoma was over 100 µM in each case.
In the case of `CC1(C)/C(=N\Nc2ccc([N+](=O)[O-])cc2[N+](=O)[O-])C2CCC1C2` (stereo unspecified), the TGI in the assay with BT-549 breast, with CAKI-1 renal, in the assay on EKVX NSCLC, with HL-60(TB) leukemia, in the assay on K-562 leukemia and with M14 melanoma was over 100 µM in each case. The TGI with NCI-H226 lung, in the assay on SK-MEL-28 melanoma, with UACC-257 melanoma and with UO-31 renal was over 100 µM each time.
As for `Nc1nc(Cl)c(C=O)c(NCC2(CO)CCC2)n1`, the TGI with BT-549 breast is over 100 µM; in the assay with CAKI-1 renal, 33.9 µM; in the assay with EKVX NSCLC it was 46.9 µM; in the assay with HL-60(TB) leukemia it was 22.3 µM; in the assay with K-562 leukemia it was 31.7 µM; in the assay with M14 melanoma, over 100 µM. The TGI in the assay on NCI-H226 lung is 34 µM; in the assay on SK-MEL-28 melanoma, over 100 µM; in the assay on UACC-257 melanoma, over 100 µM; in the assay with UO-31 renal, 58.6 µM.
On to `COc1ccc2c(c1)OC1c3ccccc3OCC21` (stereo unspecified), for which the TGI in the assay with BT-549 breast, in the assay on CAKI-1 renal, in the assay on EKVX NSCLC, in the assay on HL-60(TB) leukemia, with K-562 leukemia and in the assay with M14 melanoma was over 100 µM in each case. Besides, the TGI with NCI-H226 lung, with SK-MEL-28 melanoma, in the assay with UACC-257 melanoma and with UO-31 renal was over 100 µM throughout.
In the case of `COc1ccc(C(=O)N(Cc2cccnc2)C(=S)N(Cc2cccnc2)C(=O)c2ccc(OC)cc2)cc1`, the TGI in the assay on BT-549 breast, in the assay on CAKI-1 renal, with EKVX NSCLC, with HL-60(TB) leukemia, in the assay on K-562 leukemia and in the assay with M14 melanoma was over 100 µM in each case. Besides, the TGI in the assay with NCI-H226 lung, in the assay with SK-MEL-28 melanoma and in the assay with UACC-257 melanoma was over 100 µM throughout.
In the case of `COc1ccc2[nH]c3c(C)c4ncccc4c(C)c3c2c1`, the TGI was over 10 µM with BT-549 breast; over 10 µM in the assay on CAKI-1 renal; over 10 µM in the assay with EKVX NSCLC; 5.85 µM with HL-60(TB) leukemia; over 10 µM in the assay with K-562 leukemia; 3.24 µM in the assay with M14 melanoma. In addition, the values for the TGI with NCI-H226 lung, in the assay with SK-MEL-28 melanoma and with UACC-257 melanoma were over 10 µM, 3.49 µM and over 10 µM, respectively.
With `C=C(C1=CC(=O)C(C)(C)O1)[C@@H]1CC=C([C@@H]2CC[C@H]3[C@@]2(C)CC[C@H]2C(C)(C)C(=O)[C@H](OC(=O)CC(C)(O)CC(=O)O)C[C@]32C)[C@H](O)O1` (stereo partly specified), the TGI is 13.4 µM in the assay on BT-549 breast; 45.8 µM in the assay on CAKI-1 renal; 29.8 µM with EKVX NSCLC; 38.4 µM with HL-60(TB) leukemia; over 75 µM with K-562 leukemia; 27 µM in the assay on M14 melanoma. Further, the figures for the TGI in the assay with NCI-H226 lung, in the assay on UACC-257 melanoma and with UO-31 renal were 31.3 µM, 35.6 µM and 26.3 µM, respectively.
